From PubChem BioAssay (NCI)
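These data come from cells grown in 96-well plates and exposed to compound for 48 hours at five concentrations. GI50: concentration for 50% inhibition of growth. TGI is the concentration that stops growth completely.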

Assays:
Assay in all cases: growth of human tumour cells (NCI), 48 h
A498 renal = tested on: A498 renal
CCRF-CEM leukemia = tested on: CCRF-CEM leukemia
ACHN renal = tested on: ACHN renal
HCT-116 colon = tested on: HCT-116 colon
LOX IMVI melanoma = tested on: LOX IMVI melanoma
MOLT-4 leukemia = tested on: MOLT-4 leukemia
UACC-62 melanoma = tested on: UACC-62 melanoma

Compound	TGI (A498 renal)	TGI (CCRF-CEM leukemia)	TGI (ACHN renal)	TGI (HCT-116 colon)	TGI (LOX IMVI melanoma)	TGI (MOLT-4 leukemia)	TGI (UACC-62 melanoma)	GI50 (A498 renal)	GI50 (CCRF-CEM leukemia)	GI50 (UACC-62 melanoma)	GI50 (ACHN renal)	GI50 (HCT-116 colon)	GI50 (LOX IMVI melanoma)	GI50 (MOLT-4 leukemia)
CC1(C)OC(=O)C(=C2CC(c3ccccc3)c3ccccc32)C(=O)O1 (configuration not stated)	> 100 µM	> 100 µM	> 100 µM	> 100 µM	> 100 µM	> 100 µM								
CN(C)/C(N)=N/C(N)=S	> 100 µM		> 100 µM	> 100 µM	> 100 µM	> 100 µM	> 100 µM							
Cc1ccc(C2=C(c3ccccc3)C(O)(c3ccc(C)cc3)C(c3ccccc3)=C2c2ccc(C)cc2)cc1	> 100 µM	> 100 µM	> 100 µM	> 100 µM	> 100 µM	> 100 µM	> 100 µM							
COC(=O)NN1C(C)=C(C(=O)OC)C2(CCOC2=O)C1(C)O (configuration not stated)	> 100 µM	> 100 µM	> 100 µM	> 100 µM	> 100 µM	> 100 µM	> 100 µM							
COc1cc(-c2cc(CCC(=O)Nc3ccccc3[N+](=O)[O-])n(-c3ccc([N+](=O)[O-])cc3[N+](=O)[O-])n2)ccc1O	> 100 µM	> 100 µM	> 100 µM	> 100 µM	> 100 µM	> 100 µM	> 100 µM	> 100 µM	> 100 µM	> 10 µM	> 10 µM	> 100 µM	> 100 µM	> 100 µM
COc1ccc(/C(C)=N/NC(N)=S)c(OC)c1	> 100 µM	> 100 µM	> 100 µM	> 100 µM	> 100 µM	> 100 µM	> 100 µM							
COc1ccc(C(=O)O)c(Cc2ccc3ccccc3c2)c1	> 100 µM	> 100 µM	> 100 µM	> 100 µM	> 100 µM	> 100 µM	> 100 µM							
CC1=C(c2cc(C(=O)Nc3nccs3)nc(NC#N)n2)Sc2ccccc2N1	> 100 µM	> 100 µM	> 100 µM	> 100 µM		> 100 µM	> 100 µM							
CN(C)CCC1(C2=CCCC2)CC/C(=C\c2ccccc2)C1=O (configuration not stated)	29.1 µM	50.3 µM	28.6 µM	35.4 µM	31.3 µM	39 µM	26.6 µM							
CC(Oc1ccc2cc(C(=O)c3ccccc3)c(=O)oc2c1)C(=O)O (configuration not stated)	> 100 µM	> 100 µM	> 100 µM	> 100 µM	> 100 µM	> 100 µM	> 100 µM							
CCC(/C(=N\Nc1c(Cl)cc(Cl)cc1Cl)c1ccccc1)n1ccnc1C (configuration not stated)	29.2 µM	> 100 µM	19.5 µM	20.8 µM	26.8 µM	37.1 µM	36.7 µM							
O=C([O-])c1ccccc1Nc1ccccc1[O-].[Ni+3].[OH3+].[OH3+].[OH3+]	> 100 µM	> 100 µM	> 100 µM	> 100 µM	> 100 µM	> 100 µM	> 100 µM	> 100 µM	> 100 µM	> 100 µM	> 100 µM	> 100 µM	> 100 µM	> 100 µM
CC(C)CC(=O)NS(=O)(=O)c1ccccc1	> 100 µM	> 100 µM	> 100 µM	> 100 µM	> 100 µM	> 100 µM	> 100 µM							
Cc1cccc(NC(=O)CC#N)c1Cl		> 100 µM	> 100 µM	> 100 µM	> 100 µM	> 100 µM	> 100 µM							
COc1ccc(C#CCC(OC2OC(CO)C(O)C(O)C2O)C(O)c2ccc(OC)c(OC)c2)cc1OC (configuration not stated)	> 100 µM	> 100 µM	> 100 µM	> 100 µM	59.1 µM	> 100 µM	> 100 µM							
CCSc1nc2n(c(=S)n1)CCN2C	47.5 µM		60.6 µM	33.7 µM	34.8 µM	39.1 µM	25.8 µM							
CCN(CC)CCOc1ccc(C(=C2CCCCC2)c2ccc(OCCN(CC)CC)cc2)cc1	3.8 µM	3.25 µM	3.18 µM	2.54 µM	2.69 µM	2.59 µM								
O=C(O)C1OC(Oc2cc(O)c3c(=O)cc(-c4ccc(O)cc4)oc3c2)C(O)C(O)C1O (configuration not stated)			> 100 µM	> 100 µM	> 100 µM									
CN(C)/C=N/c1nc2ncn(CCOC(=O)c3ccccc3)c2c(=O)[nH]1	> 100 µM	> 100 µM	> 100 µM	> 100 µM	> 100 µM		> 100 µM							
CC(O[Si](C)(C)C)C1C=CC(C)n2c(=O)n(-c3ccccc3)c(=O)n21 (configuration not stated)				> 100 µM		> 100 µM	> 100 µM							
COC(=O)C(Cc1nc2ccccc2[nH]c1=O)C(=O)C(=O)Nc1ccc(OC)cc1[N+](=O)[O-] (configuration not stated)		> 100 µM	> 100 µM	> 100 µM	> 100 µM	> 100 µM	> 100 µM							
ClC[Si]12OCCN(CCO1)CCO2	> 100 µM	> 100 µM	> 100 µM	> 100 µM		> 100 µM	> 100 µM							
Cc1cc2c(cc1C)[n+](=O)c(C(=O)/C=C/c1ccccc1Cl)c(C)n2[O-]	96.7 µM	> 100 µM	58.1 µM		> 100 µM	> 100 µM	35.1 µM							
